Where two headings read alike, the source gives them in different places.
How the values were obtained:
SKBR3 breast carcinoma = assay: In vitro cell proliferation inhibition, SKBR3; assay type: cell-based; conditions: Homo sapiens, SK-BR-3; SKBR3 cells, 14C-thymidine incorporation; read-out: IC50 SKBR3
Source text: (§1) The ability of a test compound to inhibit unregulated in vitro cell proliferation may be determined by measuring incorporation of ^14C-labelled thymidine into newly synthesized DNA within cell lines derived from carcinomas originating from several tissues. Accordingly, the effect of a test compound on proliferation of cells with a variety of phenotypes may be determined.
(§2) Carcinoma cell lines used include the HeLa cervical adenocarcinoma from the American Type Culture Collection (ATCC Cat. #CCL2), SK-OV-3 ovarian carcinoma (ATCC Cat. #HTB-77), MCF-7 breast carcinoma (ATCC Cat. #HTB-22), BT474 breast carcinoma (ATCC Cat. #HTB-20), SKBR3 breast carcinoma (ATCC Cat. #HTB-30), A431 epidermoid carcinoma (ATCC Cat. #CRL-1555) and NCI-N87 gastric carcinoma (ATCC Cat. #CRL-5822).
(§3) The carcinoma cells are trypsinized and counted. The cells (3000-8000 count) are added to each well of a 96-well CytoStar tissue culture treated scintillating microplate (Amersham #RPNQ0160) in complete medium (100 μL) and the plate is then incubated in complete medium for 24 hrs at 37° C. in an inert atmosphere containing 5% CO2.
(§4) Test compound (1 μL) in 100% DMSO is added to the plate test-wells with DMSO only added to control-wells. The plate is incubated in complete medium for a second 24 hr period at 37° C. in an atmosphere containing 5% CO2.
(§5) An aliquot of a solution of Methyl ^14C-thymidine (56 mC/mmol) (NEN #NEC568 or Amersham #CFA532) and complete medium (20 μL to provide 0.2 μCi/well) is then added to each well and the plate is incubated for a third 24 hr period at 37° C. in an atmosphere containing 5% CO2.
(§6) The plate contents are then discarded, the plate is washed twice with PBS (200 μL) and then PBS (200 μL) is added to each well. The plate is sealed and the degree of methyl ^14C-thymidine incorporation is quantified on a Packard Top Count.
(§7) Cell proliferation of the Hela cell line was measured using the ATP-Lite method as described in the ATP Lite Kit (Perkin-Elmer Kit Number 6106941) or the C^14 method as described above. Cell proliferation of the other cell lines was measured using the C^14 method.
(§8) The term “NT” means that the compound indicated was not tested in a particular cell line. The lack of such testing is not intended to imply a belief that the compound is not otherwise active in a particular cell line or any other cell line not tested.

[1] = tested on: A431 epidermoid carcinoma; assay: In vitro cell proliferation inhibition, A431; assay type: cell-based; conditions: Homo sapiens, A-431; A431 cells, 14C-thymidine incorporation; read-out: IC50 A431
Source text: as §1, §2, §3, §4, §5, §6, §7, §8

[2] = tested on: NCI-N87 gastric carcinoma; assay: In vitro cell proliferation inhibition, NCI-N87; assay type: cell-based; conditions: Homo sapiens, NCI-N87; N87 cells, 14C-thymidine incorporation; read-out: IC50 N87
Source text: as §1, §2, §3, §4, §5, §6, §7, §8

EGFR = target: T1, EGFR (Homo sapiens, UniProt P00533); assay: EGFR Kinase Assay; assay type: biochemical;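 also: recombinant GST-tagged EGFR expressed in Sf9 cells, phosphorylating biotinylated polyGluTyr with γ-33P ATP on Streptavidin Flashplates, 1 h at 30 °C, scintillation counting, inhibition relative to plate maximum and minimum signals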
T1 construct: The intracellular portion of EGFR started at nucleotide 2189 (corresponding to amino acid 667) and ended at the termination codon; made in house; host or cells: Sf9 insect cells (baculovirus)
T1 sequence (P00533 669-1210 limits assumed): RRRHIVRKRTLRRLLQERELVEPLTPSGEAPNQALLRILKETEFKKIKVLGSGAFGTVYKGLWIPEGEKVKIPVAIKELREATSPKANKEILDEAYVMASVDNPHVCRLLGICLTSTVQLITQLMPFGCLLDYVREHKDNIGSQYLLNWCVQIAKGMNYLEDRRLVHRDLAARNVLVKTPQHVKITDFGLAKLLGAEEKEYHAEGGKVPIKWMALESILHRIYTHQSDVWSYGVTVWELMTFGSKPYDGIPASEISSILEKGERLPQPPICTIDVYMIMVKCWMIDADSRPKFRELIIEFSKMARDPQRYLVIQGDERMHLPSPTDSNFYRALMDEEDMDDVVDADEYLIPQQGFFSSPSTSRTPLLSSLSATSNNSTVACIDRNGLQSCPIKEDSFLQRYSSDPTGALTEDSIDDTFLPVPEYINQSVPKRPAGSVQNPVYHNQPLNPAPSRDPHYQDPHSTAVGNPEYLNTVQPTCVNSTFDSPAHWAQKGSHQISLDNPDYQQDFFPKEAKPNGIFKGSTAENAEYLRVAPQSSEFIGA

BT474 breast carcinoma = assay: In vitro cell proliferation inhibition, BT474; assay type: cell-based; conditions: Homo sapiens, BT-474; BT474 cells, 14C-thymidine incorporation; read-out: IC50 BT474
Source text: as §1, §2, §3, §4, §5, §6, §7, §8

[3] = tested on: SK-OV-3 ovarian carcinoma; assay: In vitro cell proliferation inhibition, SK-OV-3; assay type: cell-based; conditions: Homo sapiens; SK-OV-3 cells, 14C-thymidine incorporation
Source text: as §1, §2, §3, §4, §5, §6, §7, §8

[4] = tested on: HeLa cervical adenocarcinoma; assay: In vitro cell proliferation inhibition, HeLa; assay type: cell-based; conditions: Homo sapiens; HeLa cell line; ATP-Lite method or C14 thymidine method; read-out: HeLa IC50
Source text: as §1, §2, §3, §4, §5, §6, §7, §8

HER-2 = target: T2, HER-2 (Homo sapiens, UniProt P04626); assay: HER-2 Kinase Assay; assay type: biochemical; conditions: read-out: HER2 IC50;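 also: HER2 kinase reaction read by scintillation counting, inhibition scaled between maximum and minimum signals set on each plate, IC50 from inhibition against log concentration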
T2 construct: purchased Proqinase (Freiburg, Germany)
T2 sequence (P04626 679-1255): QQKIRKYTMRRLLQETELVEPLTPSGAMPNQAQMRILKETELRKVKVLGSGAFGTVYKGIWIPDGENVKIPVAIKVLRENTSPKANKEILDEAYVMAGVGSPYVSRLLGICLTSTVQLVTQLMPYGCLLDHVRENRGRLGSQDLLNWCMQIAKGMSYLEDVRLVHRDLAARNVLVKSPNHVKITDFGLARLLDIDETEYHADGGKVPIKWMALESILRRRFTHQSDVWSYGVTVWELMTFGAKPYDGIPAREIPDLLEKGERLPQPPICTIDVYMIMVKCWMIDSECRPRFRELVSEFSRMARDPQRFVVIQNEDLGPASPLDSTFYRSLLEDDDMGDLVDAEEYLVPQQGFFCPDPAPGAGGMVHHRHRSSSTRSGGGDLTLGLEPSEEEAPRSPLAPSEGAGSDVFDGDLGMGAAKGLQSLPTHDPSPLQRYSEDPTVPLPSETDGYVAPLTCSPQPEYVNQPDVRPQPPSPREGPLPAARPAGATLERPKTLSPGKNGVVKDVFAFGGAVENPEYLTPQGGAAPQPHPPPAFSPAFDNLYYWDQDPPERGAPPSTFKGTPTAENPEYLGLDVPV

MCF-7 breast carcinoma = assay: In vitro cell proliferation inhibition, MCF-7; assay type: cell-based; conditions: Homo sapiens, MCF7; MCF-7 cells, 14C-thymidine incorporation
Source text: as §1, §2, §3, §4, §5, §6, §7, §8

[5] = Blood-Brain Barrier Penetration (concentration in plasma and brain); assay type: in vivo, Sprague Dawley rats; conditions: male, Sprague Dawley, rat; for concentration at 60 min: male Sprague Dawley rats; for concentration at 120 min: 120 min (brain)
Protocol: The blood-brain barrier penetration of Compound 78 was examined in male Sprague Dawley rats following i.v. (3 mg/kg) or oral (10 mg/kg) administration.
The i.v. formulation consisted of a 1 mg/mL dose in vehicle (10% solutol in D5W at pH 3) with plasma samples drawn at 0.25 hours, 0.5 hours and 1 hour after administration.
The oral (p.o) formulation consisted of a 1 mg/mL dose in vehicle (0.5% methylcellulose) with plasma samples drawn at 0.5 hours, 1 hour and 2 hours after administration.
The plasma samples (0.5 ml) were collected and centrifuged (2000 rpm, 3 min), then stored at −60° C. until LC-MS/MS analysis. Brain samples were collected immediately after the last blood sample collection. The samples were rinsed with 0.9% NaCl, patted dry, then weighed and placed in Falcon 14 mL polypropylene round-bottom tubes containing 3 mL methanol. The methanolic mixtures were homogenized with an OMNI TH115 homogenizer then centrifuged for 10 minutes at 7,000 rpm. The supernatant was removed and stored frozen in 15 mL polyethylene tubes at −60° C. until LC-MS/MS analysis.

SMILES | IC50 (SKBR3 breast carcinoma) [nM] | IC50 [1] [nM] | IC50 [2] [nM] | IC50 (EGFR) [nM] | IC50 (BT474 breast carcinoma) [nM] | IC50 [3] [nM] | IC50 [4] [nM] | IC50 (HER-2) [nM] | IC50 (MCF-7 breast carcinoma) [nM] | concentration at 60 min ([5]; brain, iv, 3 mg/kg, i.v. 3 mg/kg, 60 min (brain), read-out: Concentration in Brain, Mean ± SEM) [ng/g] | concentration at 120 min ([5]; brain, po, 10 mg/kg, p.o. 10 mg/kg, first of two lines so labelled, read-out: Concentration in Brain, Mean ± SEM) [ng/g] | concentration at 120 min ([5]; brain, po, 10 mg/kg, p.o. 10 mg/kg, second of two lines so labelled, read-out: Concentration in Brain, Mean ± SEM) [ng/g] | Kp at 1 h ([5]; brain/plasma, iv, i.v. 3 mg/kg, 60 min, read-out: Brain/Plasma Ratio) | Kp at 2 h ([5]; brain/plasma, po, p.o. 10 mg/kg, read-out: Brain/Plasma Ratio) | concentration at 60 min ([5]; plasma, iv, 3 mg/kg, i.v. 3 mg/kg, 60 min (plasma), read-out: Concentration in Plasma, Mean ± SEM) [ng/mL] | concentration at 60 min ([5]; plasma, po, 10 mg/kg, p.o. 10 mg/kg, 60 min (plasma), read-out: Concentration in Plasma, Mean ± SEM) [ng/mL]
Nc1ncnc(Nc2ccc(OCc3ccccc3)c(Cl)c2)c1/C=N/OCCCO [Cpd 76, (5E)-4-amino-6-(4-benzyloxy-3-chloro-phenylamino)-pyrimidine-5-carbaldehyde O-(3-hydroxy-propyl)-oxime] | 300 | 1800 | 300 | 10 | 200 | 24100 | 59400 | 30 | 10000 |  |  |  |  |  |  | 
Nc1ncnc(Nc2ccc(OCc3ccccc3)c(Cl)c2)c1/C=N/OCCN1CCOCC1 [Cpd 78] | 200 | 800 | 200 | 20 | 60 | 100000 | 19600 | 60 | 100000 | 307 ± 55 | 46.1 ± 17.4 | 51.2 ± 13.7 | 2.5 | 1.2 | 124 ± 5.5 | 73.6 ± 16.4
Nc1ncnc(Nc2ccc(OCc3ccccc3)c(Cl)c2)c1/C=N/OCCN1CCCCC1 [Cpd 95, (5E)-4-amino-6-(4-benzyloxy-3-chloro-phenylamino)-pyrimidine-5-carbaldehyde O-(2-piperidin-1-yl-ethyl)-oxime] | 10000 | 100000 | 1100 | 50 | 10000 | 2400 | 12100 | 200 | 1000 |  |  |  |  |  |  | 
Nc1ncnc(Nc2ccc3c(ccn3Cc3cccc(F)c3)c2)c1/C=N/OCCCO [Cpd 91, (5E)-4-amino-6-[1-(3-fluoro-benzyl)-1H-indol-5-ylamino]-pyrimidine-5-carbaldehyde O-(3-hydroxy-propyl)-oxime] | 300 | 1300 | 200 | 7 | 200 | 5400 | 9400 | 30 | 10000 |  |  |  |  |  |  | 
CO/N=C/c1c(N)ncnc1Nc1ccc2c(ccn2Cc2cccc(F)c2)c1 [Cpd 34, (5E)-4-amino-6-[1-(3-fluoro-benzyl)-1H-indol-5-ylamino]-pyrimidine-5-carbaldehyde O-methyl-oxime] |  |  | 200 |  |  | 3200 | 3500 |  | 3800 |  |  |  |  |  |  | 
CO/N=C/c1c(N)ncnc1Nc1ccc(OCc2ccccc2)c(Cl)c1 [Cpd 9, (5E)-4-amino-6-(4-benzyloxy-3-chloro-phenylamino)-pyrimidine-5-carbaldehyde O-methyl-oxime] |  |  | 700 |  |  | 100000 | 35000 |  | 86600 |  |  |  |  |  |  | 

The remaining lines, values ahead:

IC50 (SKBR3 breast carcinoma) [nM] | IC50 [1] [nM] | IC50 [2] [nM] | IC50 (EGFR) [nM] | IC50 (BT474 breast carcinoma) [nM] | IC50 [3] [nM] | IC50 [4] [nM] | IC50 (HER-2) [nM] | IC50 (MCF-7 breast carcinoma) [nM] | concentration at 60 min ([5]; brain, iv, 3 mg/kg, i.v. 3 mg/kg, 60 min (brain), read-out: Concentration in Brain, Mean ± SEM) [ng/g] | concentration at 120 min ([5]; brain, po, 10 mg/kg, p.o. 10 mg/kg, first of two lines so labelled, read-out: Concentration in Brain, Mean ± SEM) [ng/g] | concentration at 120 min ([5]; brain, po, 10 mg/kg, p.o. 10 mg/kg, second of two lines so labelled, read-out: Concentration in Brain, Mean ± SEM) [ng/g] | Kp at 1 h ([5]; brain/plasma, iv, i.v. 3 mg/kg, 60 min, read-out: Brain/Plasma Ratio) | Kp at 2 h ([5]; brain/plasma, po, p.o. 10 mg/kg, read-out: Brain/Plasma Ratio) | concentration at 60 min ([5]; plasma, iv, 3 mg/kg, i.v. 3 mg/kg, 60 min (plasma), read-out: Concentration in Plasma, Mean ± SEM) [ng/mL] | concentration at 60 min ([5]; plasma, po, 10 mg/kg, p.o. 10 mg/kg, 60 min (plasma), read-out: Concentration in Plasma, Mean ± SEM) [ng/mL] | SMILES
400 | 800 | 200 | 60 | 200 | 15300 | 14700 | 100 | 2100 |  |  |  |  |  |  |  | Nc1ncnc(Nc2ccc3c(cnn3Cc3cccc(F)c3)c2)c1/C=N/OCCN1CCCCC1 [Cpd 96, (5E)-4-amino-6-[1-(3-fluoro-benzyl)-1H-indazol-5-ylamino]-pyrimidine-5-carbaldehyde O-(2-piperidin-1-yl-ethyl)-oxime]
100 | 1100 | 40 | 20 | 30 | 19100 | 10000 | 50 | 2500 |  |  |  |  |  |  |  | Nc1ncnc(Nc2ccc3c(cnn3Cc3cccc(F)c3)c2)c1/C=N/OCCN1CCOCC1 [Cpd 19, (5E)-4-amino-6-[1-(3-fluoro-benzyl)-1H-indazol-5-ylamino]-pyrimidine-5-carbaldehyde O-(2-morpholin-4-yl-ethyl)-oxime]
 |  | 1 | 8 |  | 10000 | 40100 | 9 | 30700 |  |  |  |  |  |  |  | Nc1ncnc(Nc2ccc(OCc3cccc(F)c3)c(Cl)c2)c1/C=N/OCCCO [Cpd 75, (5E)-4-amino-6-[3-chloro-4-(3-fluoro-benzyloxy)-phenylamino]-pyrimidine-5-carbaldehyde O-(3-hydroxy-propyl)-oxime]
